From patent US20200140489A1 (priority 2013, published 2020)
pIC50: −log10 of the molar value. Read-outs that look alike come from different tables or passages of the source. Positions of bridges follow the written chain, without caps; N, C: chain ends. Non-standard residues stand in square brackets, D forms with d. Residues, ends and D or L forms follow the SMILES beside them. *: point of attachment. X1 = CC[C@@H](C)C1NC(=O)CN(CC(=O)*)C1=O; Aoc = NCCCCCCCC(=O)O; GABA = NCCCC(=O)O

How the values were obtained:
[1] = molecular target: T1, AgrC-IV (Staphylococcus aureus, UniProt Q309Z2); assay: Hemolysis assay, wild-type group-IV strain RN4850, rabbit red blood cells; settings: read-out: AgrC-IV IC50, hemolysis assay, 200 fM − 10 μM
T1 sequence (Q309Z2 1-430): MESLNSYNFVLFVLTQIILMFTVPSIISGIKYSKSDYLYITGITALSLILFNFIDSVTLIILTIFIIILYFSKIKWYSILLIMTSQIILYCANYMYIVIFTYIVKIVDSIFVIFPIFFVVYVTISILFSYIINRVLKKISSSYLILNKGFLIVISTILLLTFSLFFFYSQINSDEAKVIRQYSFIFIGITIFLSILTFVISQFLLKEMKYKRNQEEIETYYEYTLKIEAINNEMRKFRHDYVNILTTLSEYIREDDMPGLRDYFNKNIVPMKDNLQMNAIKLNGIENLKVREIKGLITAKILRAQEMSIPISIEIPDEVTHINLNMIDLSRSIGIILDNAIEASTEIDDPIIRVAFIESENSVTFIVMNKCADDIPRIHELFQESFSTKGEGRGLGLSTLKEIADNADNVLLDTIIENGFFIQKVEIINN

[2] = molecular target: T2, AgrC-II (Staphylococcus aureus, UniProt O33587); assay: Hemolysis assay, wild-type group-II strain RN6923, rabbit red blood cells; settings: read-out: AgrC-II IC50, hemolysis assay, 200 fM − 10 μM
T2 sequence (O33587 1-437): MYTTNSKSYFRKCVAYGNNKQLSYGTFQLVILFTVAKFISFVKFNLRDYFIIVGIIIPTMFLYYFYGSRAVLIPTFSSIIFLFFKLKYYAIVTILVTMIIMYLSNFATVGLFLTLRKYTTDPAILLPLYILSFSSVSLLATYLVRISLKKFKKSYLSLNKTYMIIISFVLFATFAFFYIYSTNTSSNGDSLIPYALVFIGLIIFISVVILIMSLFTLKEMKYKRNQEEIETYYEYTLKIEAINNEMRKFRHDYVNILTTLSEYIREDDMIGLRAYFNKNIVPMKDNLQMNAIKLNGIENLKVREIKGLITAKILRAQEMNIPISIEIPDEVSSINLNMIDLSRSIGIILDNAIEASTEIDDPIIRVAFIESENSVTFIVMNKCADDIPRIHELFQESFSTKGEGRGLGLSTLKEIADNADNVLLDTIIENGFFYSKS

[3] = molecular target: T3, AgrC-III (Staphylococcus aureus, UniProt O33590); type: cell-based, S. aureus; settings: for pIC50: read-out: AgrC-III IC50, fluorescence reporter strain; for AgrC-III activity: gfp/fluorescence assay; for AgrC-III % Activation: fluorescence of treated vs non-treated wild-type bacteria, lower % activation = more potent inhibition
T3 sequence (O33590 1-425): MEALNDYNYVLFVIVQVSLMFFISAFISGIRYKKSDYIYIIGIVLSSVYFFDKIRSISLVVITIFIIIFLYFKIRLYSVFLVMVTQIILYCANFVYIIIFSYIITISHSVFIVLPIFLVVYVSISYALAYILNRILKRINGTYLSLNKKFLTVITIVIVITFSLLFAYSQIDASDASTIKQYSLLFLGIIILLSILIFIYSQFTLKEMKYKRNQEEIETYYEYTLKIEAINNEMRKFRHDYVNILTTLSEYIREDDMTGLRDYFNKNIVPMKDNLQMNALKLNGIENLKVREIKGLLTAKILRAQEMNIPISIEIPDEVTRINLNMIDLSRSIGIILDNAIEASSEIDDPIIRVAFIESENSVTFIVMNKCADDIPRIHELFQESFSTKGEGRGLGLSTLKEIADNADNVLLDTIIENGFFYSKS

[4] = molecular target: T3, AgrC-III; assay: Hemolysis assay, wild-type group-III strain MN8, rabbit red blood cells
[5] = molecular target: T2, AgrC-II; type: cell-based, S. aureus; settings: for pIC50: read-out: AgrC-II IC50, fluorescence reporter strain; for AgrC-II % Activation: fluorescence of treated vs non-treated wild-type bacteria, lower % activation = more potent inhibition
[6] = molecular target: T1, AgrC-IV; type: cell-based, S. aureus; settings: for pIC50: read-out: AgrC-IV IC50, fluorescence reporter strain; for AgrC-IV % Activation: fluorescence of treated vs non-treated wild-type bacteria, lower % activation = more potent inhibition
[7] = molecular target: T4, AgrC-I (Staphylococcus aureus, UniProt O07911); type: cell-based, S. aureus; settings: for pIC50: read-out: AgrC-I IC50; for AgrC-I % Activation: fluorescence of treated vs non-treated wild-type bacteria, lower % activation = more potent inhibition
T4 sequence (O07911 1-430): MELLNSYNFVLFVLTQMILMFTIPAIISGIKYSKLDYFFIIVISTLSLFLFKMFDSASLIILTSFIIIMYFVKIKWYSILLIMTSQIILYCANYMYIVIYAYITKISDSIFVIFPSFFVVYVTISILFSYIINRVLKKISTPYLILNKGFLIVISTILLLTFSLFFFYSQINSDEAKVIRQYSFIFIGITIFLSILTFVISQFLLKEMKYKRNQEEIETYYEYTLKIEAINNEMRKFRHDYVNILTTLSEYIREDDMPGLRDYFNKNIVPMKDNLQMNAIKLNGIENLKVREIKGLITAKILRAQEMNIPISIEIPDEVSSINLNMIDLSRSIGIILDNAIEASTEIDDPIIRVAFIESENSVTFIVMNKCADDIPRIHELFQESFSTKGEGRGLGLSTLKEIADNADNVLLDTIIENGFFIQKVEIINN

[8] = molecular target: T4, AgrC-I; assay: Hemolysis assay, wild-type group-I strain RN6390B, rabbit red blood cells; settings: for pIC50: read-out: AgrC-I IC50, hemolysis assay, 200 fM − 10 μM
[9] = AIPs tested over 200 fM − 10 μM or (b1) 2.5 pM − 10 μM, triplicate
[10] = read-out: AgrC-III IC50, 200 fM − 10 μM
[11] = fluorescence reporter strain, AIPs tested over 200 fM − 10 μM or (b1) 2.5 pM − 10 μM, triplicate
[12] = selected second-generation analogues
[13] = second-generation analogues, 200 fM − 10 μM
[14] = read-out: AgrC-III IC50, selected second-generation analogues, 200 fM − 10 μM
[15] = second-generation analogues, fluorescence reporter strain, 200 fM − 10 μM

Row | SMILES | pIC50 [1] | pIC50 [2] | pIC50 [3, 9] | pIC50 [5, 9] | pIC50 [6, 9] | pIC50 [3, 13] | pIC50 [6, 13] | pIC50 [7, 15] | pIC50 [5, 13] | AgrC-III activity [3] | further results
1 | CC[C@H](C)[C@@H]1NC(=O)[C@H](Cc2ccccc2)NC(=O)[C@H](CC(=O)O)NC(=O)[C@@H](NC(=O)[C@@H](NC(=O)[C@H](CO)NC(=O)[C@@H](N)Cc2ccc(O)cc2)[C@@H](C)O)CSC(=O)[C@H](CCSC)NC1=O [AIP-I, Y-S-T-(C-D-F-I-M), reference compound] (H-YSTCDFIM; thioester 4-C) | 6.72 | 8.48 | 9.28 | 8.10 | – | – | – | – | – | – | pIC50 [4, 10]: 8.21
2 | CC(C)C[C@@H]1NC(=O)[C@H](CO)NC(=O)[C@H](CO)NC(=O)[C@@H](NC(=O)[C@H](C)NC(=O)[C@H](CC(N)=O)NC(=O)[C@@H](NC(=O)CN)C(C)C)CSC(=O)[C@H](Cc2ccccc2)NC1=O [AIP-II, G-V-N-A-(C-S-S-L-F), reference compound] (H-GVNACSSLF; thioester 5-C) | 8.92 | – | 9.27 | – | 9.40 | – | – | – | – | – | pIC50 [4, 10]: 8.44; pIC50 [7]: 8.79; pIC50 [8]: 9.05
3 | CC[C@H](C)[C@H](N)C(=O)N[C@@H](CC(N)=O)C(=O)N[C@H]1CSC(=O)[C@H](CC(C)C)NC(=O)[C@H](CC(C)C)NC(=O)[C@H](C)NC(=O)[C@H](CC(=O)O)NC1=O [AIP-III F5A, I-N-(C-D-A-L-L)] (H-INCDALL; thioester 3-C) | – | 7.35 | < 6.70 | < 6.70 | 6.93 | – | – | – | – | – | pIC50 [7, 11]: < 6.70
4 | CC(C)C[C@@H]1NC(=O)[C@H](Cc2ccccc2)NC(=O)[C@H](CC(=O)O)NC(=O)[C@@H](NC(=O)[C@H](CC(N)=O)NC(=O)[C@H](C)N)CSC(=O)[C@H](CC(C)C)NC1=O [AIP-III I1A, A-N-(C-D-F-L-L)] (H-ANCDFLL; thioester 3-C) | 7.90 | 8.89 | 6.71 | 8.37 | 8.11 | – | – | – | – | – | pIC50 [7, 11]: 7.75; pIC50 [8]: 8.34
5 | CC(C)C[C@@H]1NC(=O)[C@H](Cc2ccccc2)NC(=O)[C@H](C)NC(=O)[C@@H](NC(=O)[C@H](CC(N)=O)NC(=O)[C@H](C)N)CSC(=O)[C@H](CC(C)C)NC1=O [AIP-III I1A/D4A, A-N-(C-A-F-L-L)] (H-ANCAFLL; thioester 3-C) | – | – | – | – | – | 9.55 | 10.00 | 9.48 | 8.63 | – | pIC50 [1, 12]: 9.55; pIC50 [2, 12]: 9.10; pIC50 [4, 14]: 9.26; fold change against AgrC-II relative to AIP-III D4A ([5]; gfp reporter): < 5 fold; fold lower concentrations inhibiting hemolysis than AIP-III D4A ([8]; group-I): eight; pIC50 [8, 12]: 10.99
6 | CC(C)C[C@@H]1NC(=O)[C@H](Cc2ccccc2)NC(=O)[C@H](C)NC(=O)[C@@H](NC(=O)[C@H](C)NC(=O)[C@H](C)N)CSC(=O)[C@H](CC(C)C)NC1=O [AIP-III I1A/N2A/D4A, A-A-(C-A-F-L-L)] (H-AACAFLL; thioester 3-C) | – | – | – | – | – | 10.13 | 10.79 | 9.52 | 9.22 | – | pIC50 [1, 12]: 9.85; pIC50 [2, 12]: 10.22; pIC50 [4, 14]: 9.61; pIC50 [8, 12]: 10.39
7 | CC[C@H](C)[C@H](N)C(=O)N[C@@H](C)C(=O)N[C@H]1CSC(=O)[C@H](CC(C)C)NC(=O)[C@H](CC(C)C)NC(=O)[C@H](Cc2ccccc2)NC(=O)[C@H](CC(=O)O)NC1=O [AIP-III N2A, I-A-(C-D-F-L-L)] (H-IACDFLL; thioester 3-C) | 8.58 | 9.86 | – | 9.14 | 8.45 | – | – | – | – | weak agonist | pIC50 [7, 11]: 8.44; pIC50 [8]: 8.99
8 | CC[C@@H](C)C1NC(=O)CN(CC(=O)N[C@H]2CSC(=O)[C@H](CC(C)C)NC(=O)[C@H](CC(C)C)NC(=O)[C@H](Cc3ccccc3)NC(=O)[C@H](CC(=O)O)NC2=O)C1=O (stereo partly drawn) [AIP-III nN2 DKP, (I-nN)-(C-D-F-L-L)] (X1-CDFLL; thioester 1-C) | – | – | 7.60 | 8.37 | 7.07 | – | – | – | – | AgrC-III inhibitor | pIC50 [7, 11]: 6.90
9 | CC[C@H](C)[C@@H]1NC(=O)[C@H](Cc2ccccc2)NC(=O)[C@H](Cc2ccc(O)cc2)NC(=O)[C@@H](NC(=O)[C@@H](NC(=O)[C@H](CO)NC(=O)[C@@H](N)Cc2ccc(O)cc2)[C@@H](C)O)CSC(=O)[C@H](CCSC)NC1=O [AIP-IV, Y-S-T-(C-Y-F-I-M), reference compound] (H-YSTCYFIM; thioester 4-C) | – | 10.05 | 9.34 | 9.43 | – | – | – | – | – | – | pIC50 [4, 10]: 8.83
10 | CC[C@H](C)[C@H](NC(C)=O)C(=O)N[C@@H](CC(N)=O)C(=O)N[C@H]1CSC(=O)[C@H](CC(C)C)NC(=O)[C@H](CC(C)C)NC(=O)[C@H](Cc2ccccc2)NC(=O)[C@H](CC(=O)O)NC1=O [Ac-AIP-III, Ac-I-N-(C-D-F-L-L)] (Ac-INCDFLL; thioester 3-C) | – | – | – | – | – | < 6.70 | < 6.70 | < 6.70 | 7.35 | largely inactive | –
11 | CC[C@H](C)[C@H](NC(=O)CN)C(=O)N[C@@H](CC(N)=O)C(=O)N[C@H]1CSC(=O)[C@H](CC(C)C)NC(=O)[C@H](CC(C)C)NC(=O)[C@H](Cc2ccccc2)NC(=O)[C@H](CC(=O)O)NC1=O [G-AIP-III, G-I-N-(C-D-F-L-L)] (H-GINCDFLL; thioester 4-C) | – | – | – | – | – | < 6.70 | 6.98 | 7.52 | 7.86 | largely inactive | –
12 | CC[C@H](C)[C@H](NC(=O)[C@@H](N)Cc1ccc(O)cc1)C(=O)N[C@@H](CC(N)=O)C(=O)N[C@H]1CSC(=O)[C@H](CC(C)C)NC(=O)[C@H](CC(C)C)NC(=O)[C@H](Cc2ccccc2)NC(=O)[C@H](CC(=O)O)NC1=O [Y-AIP-III, Y-I-N-(C-D-F-L-L)] (H-YINCDFLL; thioester 4-C) | – | – | – | – | – | 7.41 | 7.11 | 8.05 | 8.43 | moderate antagonist | –
13 | CC(=O)N[C@H]1CSC(=O)[C@H](Cc2ccccc2)NC(=O)[C@H](CC(C)C)NC(=O)CCCNC1=O [n3LF] (Ac-C[GABA]LF; thioester 1-C) | – | – | – | – | – | – | – | – | – | global inhibitor of all four AgrC receptors | AgrC-III % Activation [3]: 13 ± 7%; AgrC-IV % Activation [6]: 6 ± 3%; AgrC-IV activity ([6]; gfp/fluorescence assay): global inhibitor of all four AgrC receptors; AgrC-I % Activation [7]: 17 ± 7%; AgrC-I activity described in text ([7]; gfp/fluorescence assay): global inhibitor of all four AgrC receptors; AgrC-II % Activation [5]: 28 ± 10%; AgrC-II activity described in text ([5]; gfp/fluorescence assay): global inhibitor of all four AgrC receptors
14 | CC(=O)N[C@H]1CSC(=O)[C@H](Cc2ccccc2)NC(=O)[C@H](CC(C)C)NC(=O)CCCCCCCNC1=O [n7LF] (Ac-C[Aoc]LF; thioester 1-C) | – | – | – | – | – | – | – | – | – | selective group-III inhibitors | AgrC-III % Activation [3]: 7 ± 3%; AgrC-IV % Activation [6]: 98 ± 14%; AgrC-I % Activation [7]: 54 ± 34%; AgrC-II % Activation [5]: 43 ± 25%
15 | CC[C@H](C)[C@@H]1NC(=O)[C@H](Cc2ccccc2)NC(=O)[C@H](C)NC(=O)[C@@H](NC(C)=O)CSC(=O)[C@H](CCSC)NC1=O [tAIP-I D2A, Ac-(C-A-F-I-M), reference compound] (Ac-CAFIM; thioester 1-C) | 9.44 | 8.60 | – | – | – | – | – | – | – | – | pIC50 [4, 10]: 9.07; pIC50 [8]: 8.84
16 | CC(=O)N[C@H]1CSC(=O)[C@H](CC(C)C)NC(=O)[C@H](CC(C)C)NC(=O)[C@H](Cc2ccccc2)NC(=O)[C@H](CC(=O)O)NC1=O [tAIP-III, Ac-(C-D-F-L-L)] (Ac-CDFLL; thioester 1-C) | – | – | – | – | – | < 6.70 | 7.59 | 7.57 | 8.82 | largely inactive | –
